“And” between values parts separate entries of the source, which are not always exact repeats. Identical values can stand only once. Like-named read-outs stand apart in the source and are kept apart here.
Key:
hCB1 = hCB1 (Homo sapiens, UniProt P21554); test: Lance Ultra cAMP accumulation assay, CHO cells; format: cell-based; parameters: expressed in transfected cells; conditions: for normalised cAMP response, concentration-response (Figure2f), replicate values: log[Compound;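 on all read-outs here: human CB1R stably expressed in CHO cells, ligands co-incubated with forskolin at room temperature, read-out is lowering of forskolin-stimulated cAMP accumulation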
CB1 (rCB1) = CB1 (rCB1) (Rattus norvegicus, UniProt P20272); test: Radioligand competition binding, [3H]-CP-55,940, rat brain membranes; conditions: for radioligand binding, competition curve point (normalized): log[drug], replicate columns
CB1 (rCB1), sequence (P20272 whole entry): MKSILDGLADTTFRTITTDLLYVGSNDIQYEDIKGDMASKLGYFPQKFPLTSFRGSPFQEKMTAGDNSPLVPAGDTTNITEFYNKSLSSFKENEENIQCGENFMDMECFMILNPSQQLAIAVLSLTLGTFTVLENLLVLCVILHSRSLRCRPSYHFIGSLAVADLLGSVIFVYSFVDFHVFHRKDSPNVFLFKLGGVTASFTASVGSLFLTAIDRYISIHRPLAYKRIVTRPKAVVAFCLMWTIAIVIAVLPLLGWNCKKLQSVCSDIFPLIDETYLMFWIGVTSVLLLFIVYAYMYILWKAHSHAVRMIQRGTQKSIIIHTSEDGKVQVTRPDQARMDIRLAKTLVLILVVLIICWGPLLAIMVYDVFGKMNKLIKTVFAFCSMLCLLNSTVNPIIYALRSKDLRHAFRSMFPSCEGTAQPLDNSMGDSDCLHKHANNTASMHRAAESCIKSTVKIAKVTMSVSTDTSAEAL

hCB1, sequence (P21554 whole entry): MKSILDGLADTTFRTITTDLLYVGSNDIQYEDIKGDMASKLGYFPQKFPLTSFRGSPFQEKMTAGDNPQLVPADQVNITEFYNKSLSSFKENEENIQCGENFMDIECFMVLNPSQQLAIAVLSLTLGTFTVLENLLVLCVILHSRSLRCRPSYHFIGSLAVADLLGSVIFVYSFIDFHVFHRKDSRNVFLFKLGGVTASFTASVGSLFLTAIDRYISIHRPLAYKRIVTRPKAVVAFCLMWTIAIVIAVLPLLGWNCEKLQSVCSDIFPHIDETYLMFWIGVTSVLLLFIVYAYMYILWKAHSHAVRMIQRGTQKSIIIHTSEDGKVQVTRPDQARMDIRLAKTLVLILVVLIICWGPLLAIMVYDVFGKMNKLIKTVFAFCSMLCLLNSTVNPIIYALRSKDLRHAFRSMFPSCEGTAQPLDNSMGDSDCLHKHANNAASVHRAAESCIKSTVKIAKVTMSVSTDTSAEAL

## Cc1cc(C(=O)NC(C)(c2ccco2)c2ccco2)nn1-c1cccc(C(F)(F)F)c1 [‘4936]
hCB1
  EC50: 4.79 nM
hCB1; CHO
  Emax: 65%
hCB1; hCB1-expressing cells, in words
  agonism, inhibition of forskolin-stimulated cAMP: agonists
hCB1; M] -5
  normalised cAMP response, concentration-response (Figure2f), replicate values: 23.9901 and 17.3183 and 31.2071
hCB1; M] -6
  normalised cAMP response, concentration-response (Figure2f), replicate values: 35.8451 and 34.6268 and 48.1963
hCB1; M] -7
  normalised cAMP response, concentration-response (Figure2f), replicate values: 34.8754 and 40.2051 and 42.4315
hCB1; M] -8
  normalised cAMP response, concentration-response (Figure2f), replicate values: 49.8775 and 50.0992 and 49.4868
hCB1; M] -9
  normalised cAMP response, concentration-response (Figure2f), replicate values: 89.3609 and 84.5102 and 106.905
hCB1; M] -10
  normalised cAMP response, concentration-response (Figure2f), replicate values: 90.3788 and 99.666 and 104.111
hCB1; M] -11
  normalised cAMP response, concentration-response (Figure2f), replicate values: 85.7953 and 85.5262 and 99.9371
hCB1; M] -12
  normalised cAMP response, concentration-response (Figure2f), replicate values: 103.02 and 108.188 and 110.316
CB1 (rCB1)
  Ki: 7 nM
CB1 (rCB1); LLE = pIC50 − clogP
  LLE (lipophilic ligand efficiency): 3.2
CB1 (rCB1); from rCB1 affinity
  LE (ligand efficiency): 0.37
CB1 (rCB1); rCB1
  pKi [95% CI]: 8.1 [7.9 – 8.4]
CB1 (rCB1); rCB1, M = -5.643
  radioligand binding, competition curve point (normalized): 23.3333 and 16.4729
CB1 (rCB1); rCB1, M = -6.357
  radioligand binding, competition curve point (normalized): 15.1515 and 4.845
CB1 (rCB1); rCB1, M = -7.07
  radioligand binding, competition curve point (normalized): 14.5455 and 12.7907
CB1 (rCB1); rCB1, M = -7.783
  radioligand binding, competition curve point (normalized): 50 and 46.3178
CB1 (rCB1); rCB1, M = -8.496
  radioligand binding, competition curve point (normalized): 103.182 and 83.9147
CB1 (rCB1); rCB1, M = -9.21
  radioligand binding, competition curve point (normalized): 89.2442
CB1 (rCB1); rCB1, M = -9.923
  radioligand binding, competition curve point (normalized): 99.0909 and 86.6279
CB1 (rCB1); rCB1, M = -10.636
  radioligand binding, competition curve point (normalized): 105.758 and 87.9845
CB1 (rCB1); rCB1 binding
  fold less potent than CP-55,940: 2.5 fold
CB1 (rCB1); read-out: Ki [95% CI], rCB1, [3H]-CP-55,940
  Ki: 7.5 nM
CB1 (rCB1); vs parent hit or analog without the change
  fold improvement in CB1R affinity: approximately 6 fold

From PMC11882969 (Nature Communications, 2025)
